Source: PubChem BioAssay AID248 (DTP/NCI, 2004)
Where “and” joins values, the source holds several entries; their conditions need not be identical. Equal entries are not always repeated. Inconclusive results and toxic doses are left out.

System: L1210 leukemia ip in BDF1 mice, survival T/C
Assay: NCI In Vivo Anticancer Drug Screen. Data for tumor model L1210 Leukemia (intraperitoneal) in B6D2F1 (BDF1) mice
Details: endpoint: mean survival time, higher = longer survival
Procedure, shortened: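 Transplantable tumor model; survival measured in treated vs vehicle control mice. Value = treated/control.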

[1] = dose: 100.0 mg/kg/injection, schedule: Q01DX001 (ip), vehicle: saline with Tween-80
[2] = dose: 100.0 mg/kg/injection, schedule: Q01DX009 (ip), vehicle: saline with Tween-80
[3] = dose: 100.0 mg/kg/injection, schedule: Q04DX002 (ip), vehicle: saline with Tween-80
[4] = dose: 200.0 mg/kg/injection, schedule: Q01DX001 (ip), vehicle: saline with Tween-80
[5] = dose: 200.0 mg/kg/injection, schedule: Q01DX009 (ip), vehicle: saline with Tween-80
[6] = dose: 200.0 mg/kg/injection, schedule: Q04DX002 (ip), vehicle: saline with Tween-80
[7] = dose: 400.0 mg/kg/injection, schedule: Q01DX001 (ip), vehicle: saline with Tween-80
[8] = dose: 400.0 mg/kg/injection, schedule: Q01DX009 (ip), vehicle: saline with Tween-80
[9] = dose: 400.0 mg/kg/injection, schedule: Q04DX002 (ip), vehicle: saline with Tween-80
[10] = dose: 100.0 mg/kg/injection, schedule: Q01DX001 (ip), vehicle: carboxymethylcellulose (CMC)
[11] = dose: 200.0 mg/kg/injection, schedule: Q01DX001 (ip), vehicle: carboxymethylcellulose (CMC)
[12] = dose: 400.0 mg/kg/injection, schedule: Q01DX001 (ip), vehicle: carboxymethylcellulose (CMC)

For `COc1c([N+](=O)[O-])cc(-c2ccccc2)cc1[N+](=O)[O-]`, the T/C (dose: 100.0 mg/kg/injection, schedule: Q04DX003 (ip), vehicle: saline) was 87 % of control, the T/C (dose: 200.0 mg/kg/injection, schedule: Q04DX003 (ip), vehicle: saline) was 87 % of control and the T/C (dose: 400.0 mg/kg/injection, schedule: Q04DX003 (ip), vehicle: saline) was 87 % of control.
`COc1ccc(OC)c(N=C2C(=O)Nc3ccc(Br)cc32)c1` was tested, and the T/C [1] was 92 % of control, the T/C [2] was 100 % of control and the T/C [3] was 108 % of control and 113 % of control. The T/C (dose: 100.0 mg/kg/injection, schedule: Q04DX003 (ip), vehicle: saline with Tween-80) was 101 % of control, the T/C [4] was 88 % of control and the T/C [5] was 94 % of control and 100 % of control. For the same molecule, the T/C [6] was 95 % of control and 97 % of control, the T/C (dose: 200.0 mg/kg/injection, schedule: Q04DX003 (ip), vehicle: saline with Tween-80) was 93 % of control and the T/C [7] was 90 % of control. The T/C [8] was 101 % of control and 92 % of control, the T/C [9] was 88 % of control and 89 % of control and the T/C (dose: 400.0 mg/kg/injection, schedule: Q04DX003 (ip), vehicle: saline with Tween-80) was 88 % of control.
`O=CC12C=CC(CC1)C1C(=O)OC(=O)C12` (configuration not stated) was tested, and the T/C (dose: 75.0 mg/kg/injection, schedule: Q01DX009 (ip), vehicle: saline) was 112 % of control, the T/C (dose: 100.0 mg/kg/injection, schedule: Q01DX001 (ip), vehicle: saline) was 91 % of control and the T/C (dose: 150.0 mg/kg/injection, schedule: Q01DX009 (ip), vehicle: saline) was 97 % of control. For the same molecule, the T/C (dose: 200.0 mg/kg/injection, schedule: Q01DX001 (ip), vehicle: saline) was 98 % of control, the T/C (dose: 300.0 mg/kg/injection, schedule: Q01DX009 (ip), vehicle: saline) was 91 % of control and the T/C (dose: 400.0 mg/kg/injection, schedule: Q01DX001 (ip), vehicle: saline) was 96 % of control.
In the case of `O=NN(CCF)C(=O)NC1CCC(NC(=O)N(CCF)N=O)CC1` (configuration not stated), the T/C (dose: 16.0 mg/kg/injection, schedule: Q01DX001 (ip), vehicle: carboxymethylcellulose (CMC)) is reported as 151 % of control, the T/C (dose: 30.0 mg/kg/injection, schedule: Q01DX001 (ip), vehicle: other) is reported as 190 % of control and the T/C (dose: 31.0 mg/kg/injection, schedule: Q01DX001 (ip), vehicle: carboxymethylcellulose (CMC)) is reported as 176 % of control. For the same molecule, the T/C (dose: 50.0 mg/kg/injection, schedule: Q01DX001 (ip), vehicle: other) was 220 % of control, the T/C (dose: 60.0 mg/kg/injection, schedule: Q01DX001 (ip), vehicle: other) was 294 % of control and the T/C (dose: 62.0 mg/kg/injection, schedule: Q01DX001 (ip), vehicle: carboxymethylcellulose (CMC)) was 336 % of control. For the same molecule, the T/C (dose: 80.0 mg/kg/injection, schedule: Q01DX001 (ip), vehicle: other) was 300 % of control, the T/C (dose: 120.0 mg/kg/injection, schedule: Q01DX001 (ip), vehicle: other) was 315 % of control and 340 % of control and the T/C (dose: 125.0 mg/kg/injection, schedule: Q01DX001 (ip), vehicle: carboxymethylcellulose (CMC)) was 357 % of control. The T/C (dose: 180.0 mg/kg/injection, schedule: Q01DX001 (ip), vehicle: other) was 340 % of control, the T/C (dose: 240.0 mg/kg/injection, schedule: Q01DX001 (ip), vehicle: other) was 298 % of control and the T/C (dose: 250.0 mg/kg/injection, schedule: Q01DX001 (ip), vehicle: carboxymethylcellulose (CMC)) was 357 % of control. For the same molecule, the T/C (dose: 375.0 mg/kg/injection, schedule: Q01DX001 (ip), vehicle: carboxymethylcellulose (CMC)) was 276 % of control, the T/C (dose: 500.0 mg/kg/injection, schedule: Q01DX001 (ip), vehicle: carboxymethylcellulose (CMC)) was 271 % of control and the T/C (dose: 750.0 mg/kg/injection, schedule: Q01DX001 (ip), vehicle: carboxymethylcellulose (CMC)) was 175 % of control. For the same molecule, the T/C (dose: 1000.0 mg/kg/injection, schedule: Q01DX001 (ip), vehicle: carboxymethylcellulose (CMC)) was 175 % of control.
`CC[N+](C)(CC)CCNC(c1ccc(OC)c(OC)c1)C(Cl)(Cl)Cl` (configuration not stated) was tested, and the T/C (dose: 75.0 mg/kg/injection, schedule: Q01DX001 (ip), vehicle: saline) was 88 % of control.
For `Cc1ccc(/C(C#N)=C2C=C(Br)/C(=N\O)C=C/2Cl)cc1`, the T/C (dose: 150.0 mg/kg/injection, schedule: Q01DX009 (ip), vehicle: saline with Tween-80) was 97 % of control and the T/C (dose: 225.0 mg/kg/injection, schedule: Q01DX009 (ip), vehicle: saline with Tween-80) was 90 % of control.
`CCO/C=N/NC(=O)CNC(=O)C=[N+]=[N-]` was tested, and the T/C (dose: 180.0 mg/kg/injection, schedule: Q01DX001 (ip), vehicle: water) was 100 % of control and 116 % of control, the T/C (dose: 270.0 mg/kg/injection, schedule: Q01DX001 (ip), vehicle: water) was 101 % of control and 117 % of control and the T/C (dose: 400.0 mg/kg/injection, schedule: Q01DX001 (ip), vehicle: water) was 105 % of control and 117 % of control. The T/C (dose: 600.0 mg/kg/injection, schedule: Q01DX001 (ip), vehicle: water) was 106 % of control and 111 % of control.
`O/N=C1\c2cc(Cl)ccc2-c2c(Cl)cc(Cl)cc21` was tested, and the T/C [10] was 115 % of control, the T/C [11] was 100 % of control and the T/C [12] was 97 % of control.
`Nc1ncnc2nc(-c3ccc(CNC(=O)CCc4ccc(S(=O)(=O)F)cc4)cc3)[nH]c12` was tested, and the T/C [1] was 89 % of control, the T/C [4] was 89 % of control and the T/C [7] was 89 % of control.
`O=C(CCN1CCC2CCC(C2)C1)c1ccccc1C(F)(F)F` (configuration not stated) was tested, and the T/C (dose: 50.0 mg/kg/injection, schedule: Q01DX001 (ip), vehicle: carboxymethylcellulose (CMC)) was 101 % of control.
For `C=C1CCOC1=O`, the T/C (dose: 100.0 mg/kg/injection, schedule: Q04DX002 (ip), vehicle: saline) was 104 % of control, the T/C (dose: 200.0 mg/kg/injection, schedule: Q04DX002 (ip), vehicle: saline) was 108 % of control and the T/C (dose: 400.0 mg/kg/injection, schedule: Q04DX002 (ip), vehicle: saline) was 106 % of control.
`O=C(CS(=O)(=O)O)Nc1ccccc1` was tested, and the T/C [1] was 94 % of control, the T/C [4] was 97 % of control and the T/C [7] was 100 % of control.
For `C=C(C)C1(CC(C)C)C(=O)NC(=S)NC1=O`, the T/C (dose: 9.5 mg/kg/injection, schedule: Q01DX001 (ip), vehicle: other) was 100 % of control, the T/C (dose: 19.0 mg/kg/injection, schedule: Q01DX001 (ip), vehicle: other) was 96 % of control and the T/C (dose: 38.0 mg/kg/injection, schedule: Q01DX001 (ip), vehicle: other) was 96 % of control.
In the case of `CNC(=O)OCCOc1ccccc1`, the T/C [1] is reported as 109 % of control, the T/C [2] is reported as 105 % of control and 116 % of control and the T/C [3] is reported as 97 % of control and 89 % of control. For the same molecule, the T/C [4] was 108 % of control, the T/C [5] was 96 % of control and 101 % of control and the T/C [6] was 94 % of control and 90 % of control. The T/C [7] was 111 % of control, the T/C [8] was 108 % of control and 110 % of control and the T/C [9] was 119 % of control and 87 % of control.
`IC[P+](c1ccccc1)(c1ccccc1)c1ccccc1` was tested, and the T/C (dose: 75.0 mg/kg/injection, schedule: Q01DX001 (ip), vehicle: carboxymethylcellulose (CMC)) was 106 % of control.
For `CCOC(=O)Nc1cc(N)c([N+](=O)[O-])c(NC(c2ccccc2)c2ccccc2)n1`, the T/C [10] was 95 % of control, the T/C [11] was 87 % of control and the T/C [12] was 92 % of control.
For `COC(=O)CC/C(C)=N\NC(=O)c1ccc[n+](C)c1`, the T/C (dose: 50.0 mg/kg/injection, schedule: Q01DX009 (ip), vehicle: saline) was 100 % of control, the T/C (dose: 100.0 mg/kg/injection, schedule: Q01DX009 (ip), vehicle: saline) was 96 % of control and the T/C (dose: 200.0 mg/kg/injection, schedule: Q01DX009 (ip), vehicle: saline) was 93 % of control.
For `O=C(Nc1ccccc1F)Sc1c(Cl)c(Cl)nc(Cl)c1Cl`, the T/C (dose: 25.0 mg/kg/injection, schedule: Q01DX009 (ip), vehicle: Klucel (hydroxypropylcellulose) (HPC)) was 96 % of control and 101 % of control, the T/C (dose: 25.0 mg/kg/injection, schedule: Q04DX003 (ip), vehicle: Klucel (hydroxypropylcellulose) (HPC)) was 105 % of control and the T/C (dose: 50.0 mg/kg/injection, schedule: Q01DX009 (ip), vehicle: Klucel (hydroxypropylcellulose) (HPC)) was 94 % of control and 101 % of control. The T/C (dose: 50.0 mg/kg/injection, schedule: Q04DX003 (ip), vehicle: Klucel (hydroxypropylcellulose) (HPC)) was 102 % of control, the T/C (dose: 100.0 mg/kg/injection, schedule: Q04DX002 (ip), vehicle: Klucel (hydroxypropylcellulose) (HPC)) was 101 % of control and 107 % of control and the T/C (dose: 100.0 mg/kg/injection, schedule: Q04DX003 (ip), vehicle: Klucel (hydroxypropylcellulose) (HPC)) was 113 % of control. The T/C (dose: 200.0 mg/kg/injection, schedule: Q04DX002 (ip), vehicle: Klucel (hydroxypropylcellulose) (HPC)) was 96 % of control and 106 % of control and the T/C (dose: 400.0 mg/kg/injection, schedule: Q04DX002 (ip), vehicle: Klucel (hydroxypropylcellulose) (HPC)) was 103 % of control and 115 % of control.
In the case of `CCC[As](=O)(O)CCCc1ccccc1`, the T/C (dose: 0.78 mg/kg/injection, schedule: Q01DX009 (ip), vehicle: Klucel (hydroxypropylcellulose) (HPC)) is reported as 100 % of control, the T/C (dose: 1.56 mg/kg/injection, schedule: Q01DX009 (ip), vehicle: Klucel (hydroxypropylcellulose) (HPC)) is reported as 87 % of control and the T/C (dose: 3.13 mg/kg/injection, schedule: Q01DX009 (ip), vehicle: Klucel (hydroxypropylcellulose) (HPC)) is reported as 101 % of control.
